We go through 21 compounds from US6924302B2, “Substituted triazole diamine derivatives as kinase inhibitors” (Ortho McNeil Pharmaceutical, Inc., priority 2000, dated 2005).

One test addresses T1, CDK1:Cyclin-B (Homo sapiens, UniProt P06493).
T1 construct: purchased New England Biolabs 6020; host or cells: insect cells
The test can be described thus: CDK1 Screening Assay. The format is biochemical. To be noted: read-out: CDK1 IC50. The procedure, abridged: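 Human CDK1:cyclin-B (30 ng/well) with biotinylated histone-H1 peptide and ^33P-γ-ATP, 1 h at 30° C, 1% DMSO, on streptavidin FlashPlate; incorporation read by scintillation.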

The target in test [1] is T2, Calmodulin Kinase (calmodulin-dependent protein kinase 2) (Rattus norvegicus, UniProt P11275).
T2 construct: a truncated version of the alpha subunit of the rat protein; purchased New England Biolabs 6060; host or cells: insect cells
The test can be described thus: Kinase Selectivity Assay Calmodulin Kinase. Format: biochemical. To be noted: Kinase Selectivity, Tables 2a-2k; read-out: Calmodulin Kinase 2 IC50. Put shortly: (§1)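 Reactions ran one hour at 30° C in 1% DMSO with enzyme diluted in 50 mM Tris-HCl pH 8.0, 0.1% BSA. Scintillation counting read ^33P incorporated into immobilized biotinylated peptide.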

In test [2] the target is T3, Glycogen Synthase Kinase-3 (beta isoform) (Oryctolagus cuniculus, UniProt G1T8E2).
T3 construct: purchased New England Biolabs 6040; host or cells: E. coli
T3 sequence (G1T8E2 1-432): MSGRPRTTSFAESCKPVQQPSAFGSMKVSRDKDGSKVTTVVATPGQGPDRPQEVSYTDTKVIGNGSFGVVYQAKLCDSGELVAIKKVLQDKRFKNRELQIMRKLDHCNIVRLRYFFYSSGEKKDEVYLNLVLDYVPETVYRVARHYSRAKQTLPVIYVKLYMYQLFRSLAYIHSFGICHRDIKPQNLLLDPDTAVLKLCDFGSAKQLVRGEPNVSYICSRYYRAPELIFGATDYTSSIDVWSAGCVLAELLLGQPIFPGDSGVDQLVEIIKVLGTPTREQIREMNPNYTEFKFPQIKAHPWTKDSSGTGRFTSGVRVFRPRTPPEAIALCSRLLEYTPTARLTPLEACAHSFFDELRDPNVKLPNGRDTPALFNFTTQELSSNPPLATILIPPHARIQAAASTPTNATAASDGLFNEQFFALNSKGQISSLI
The test can be described thus: Kinase Selectivity Assay Glycogen Synthase Kinase-3. The format is biochemical, rabbit. Put shortly: as §1

Test [3] addresses T4, MAP Kinase (ERK-2 isoform) (Rattus norvegicus, UniProt P63086).
T4 construct: polyhistidine (N); host or cells: E. coli
The test can be described thus: Kinase Selectivity Assay MAP Kinase (ERK-2). The format is biochemical. To be noted: Kinase Selectivity, Tables 2a-2k; read-out: ERK 2 IC50. The procedure, abridged:
as §1

In test [4] the target is T5, PDGF-R (platelet derived growth factor receptor) beta subunit kinase domain (Homo sapiens, UniProt P09619).
T5 construct: nucleotides 1874-3507 of the human PDGF-R beta subunit kinase domain; polyhistidine (N)
T5 sequence (P09619 564-1106): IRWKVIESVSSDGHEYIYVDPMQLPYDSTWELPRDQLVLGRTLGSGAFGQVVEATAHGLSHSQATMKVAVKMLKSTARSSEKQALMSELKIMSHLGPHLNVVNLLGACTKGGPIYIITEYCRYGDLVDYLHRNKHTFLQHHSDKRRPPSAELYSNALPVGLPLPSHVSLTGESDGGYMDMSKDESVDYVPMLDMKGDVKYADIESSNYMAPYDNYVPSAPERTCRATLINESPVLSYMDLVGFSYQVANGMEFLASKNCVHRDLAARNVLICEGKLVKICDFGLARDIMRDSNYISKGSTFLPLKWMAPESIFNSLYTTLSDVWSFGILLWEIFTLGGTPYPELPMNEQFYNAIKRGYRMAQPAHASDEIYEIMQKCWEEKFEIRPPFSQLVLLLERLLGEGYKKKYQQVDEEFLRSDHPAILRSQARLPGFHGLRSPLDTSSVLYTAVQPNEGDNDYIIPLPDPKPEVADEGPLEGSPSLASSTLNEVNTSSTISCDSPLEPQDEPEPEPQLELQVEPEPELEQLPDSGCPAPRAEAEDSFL
The test can be described thus: Kinase Selectivity Assay PDGF-R. The format is biochemical. To be noted: Kinase Selectivity, Tables 2a-2k; read-out: PDGF-R kinase IC50. Put shortly:
as §1

Setting [5] is: Kinase Selectivity, Tables 2a-2k.
Setting [6] is: Kinase Selectivity, Tables 2a-2k, read-out: GSK-3 IC50.

Read-outs that look alike come from different tables or passages of the source. Bounds are passed on as bounds.

T1 sequence (P06493 whole entry): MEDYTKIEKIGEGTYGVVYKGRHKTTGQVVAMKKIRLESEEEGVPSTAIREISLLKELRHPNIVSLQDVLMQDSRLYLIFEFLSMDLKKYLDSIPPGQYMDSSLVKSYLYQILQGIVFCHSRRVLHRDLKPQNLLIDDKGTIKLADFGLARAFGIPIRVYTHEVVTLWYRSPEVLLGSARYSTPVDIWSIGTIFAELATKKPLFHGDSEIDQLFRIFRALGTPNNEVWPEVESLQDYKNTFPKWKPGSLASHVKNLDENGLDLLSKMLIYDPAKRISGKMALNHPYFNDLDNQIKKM
T1 sequence (P14635 whole entry partner): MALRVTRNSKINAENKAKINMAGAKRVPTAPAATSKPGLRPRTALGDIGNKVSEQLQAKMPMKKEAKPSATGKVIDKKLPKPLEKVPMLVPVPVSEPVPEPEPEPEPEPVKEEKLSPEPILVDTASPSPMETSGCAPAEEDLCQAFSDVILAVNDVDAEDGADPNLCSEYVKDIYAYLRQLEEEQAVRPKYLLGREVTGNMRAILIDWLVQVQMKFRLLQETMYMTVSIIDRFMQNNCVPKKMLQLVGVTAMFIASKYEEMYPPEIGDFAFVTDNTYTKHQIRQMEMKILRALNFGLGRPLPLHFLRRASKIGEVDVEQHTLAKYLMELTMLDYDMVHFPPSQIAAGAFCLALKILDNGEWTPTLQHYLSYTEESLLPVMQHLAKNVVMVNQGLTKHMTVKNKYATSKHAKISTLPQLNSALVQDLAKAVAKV
T4 sequence (P63086 whole entry, canonical isoform): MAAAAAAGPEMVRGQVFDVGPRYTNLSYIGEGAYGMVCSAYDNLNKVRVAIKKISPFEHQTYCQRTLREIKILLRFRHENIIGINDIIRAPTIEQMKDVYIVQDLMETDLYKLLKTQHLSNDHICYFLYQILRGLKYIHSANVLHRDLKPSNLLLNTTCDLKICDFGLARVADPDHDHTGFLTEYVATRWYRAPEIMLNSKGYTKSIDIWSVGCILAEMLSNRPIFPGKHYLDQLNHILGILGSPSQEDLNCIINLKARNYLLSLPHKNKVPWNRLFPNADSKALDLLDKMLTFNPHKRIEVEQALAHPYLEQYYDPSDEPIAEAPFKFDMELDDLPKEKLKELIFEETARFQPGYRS

As for `Nc1nc(Nc2ccc(S(N)(=O)=O)cc2)nn1C(=O)c1c(F)cccc1F` [Cpd 1, 4-[[5-amino-1-(2,6-difluorobenzoyl)-1H-1,2,4-triazol-3-yl]amino]-benzenesulfonamide], the IC50 at CDK1:Cyclin-B (setting [5]) was 6 nM; at CDK1:Cyclin-B (Table 1), 6.4 nM; in test [1] it was over 100000 nM; in test [2], 41 nM.

Regarding `Nc1nc(Nc2ccc(S(N)(=O)=O)cc2)nn1C(=O)c1cccs1` [Cpd 14, 4-[[5-amino-1-(2-thienylcarbonyl)-1H-1,2,4-triazol-3-yl]amino]-benzenesulfonamide], the IC50 was 4.5 nM on CDK1:Cyclin-B (setting [5]); 4.5 nM on CDK1:Cyclin-B (Table 1); 60400 nM in test [1]; 3 nM in test [2] (setting [6]); 2140 nM in test [3]; 189 nM in test [4].

For the compound `Nc1nc(Nc2ccc(S(N)(=O)=O)cc2)nn1C(=O)c1sccc1F` [Cpd 16, 4-[[5-amino-1-[(3-fluoro-2-thienyl)carbonyl]-1H-1,2,4-triazol-3-yl]amino]-benzenesulfonamide], the IC50 at CDK1:Cyclin-B (setting [5]) is 21 nM; at CDK1:Cyclin-B (Table 1) it was 2.1 nM; in test [1] it was over 100000 nM; in test [2] (setting [6]), 4 nM; in test [3], 390 nM; in test [4], 100 nM.

`Nc1nc(Nc2ccc(S(N)(=O)=O)cc2)nn1C(=O)c1sccc1Cl` [Cpd 17, 4-[[5-amino-1-[(3-chloro-2-thienyl)carbonyl]-1H-1,2,4-triazol-3-yl]amino]-benzenesulfonamide]: the half-inhibitory concentration (IC50) at CDK1:Cyclin-B (setting [5]) stood at 2.5 nM; at CDK1:Cyclin-B (Table 1), 2.5 nM; in test [1] it was 2800 nM; in test [2] (setting [6]), 9 nM; in test [3] it was 1870 nM; in test [4], 81 nM.

With `Nc1nc(Nc2ccc(S(=O)(=O)N3CCCCC3)cc2)nn1C(=O)c1cccs1` [Cpd 23, N^3-[4-(1-piperidinylsulfonyl)phenyl]-1-(2-thienylcarbonyl)-1H-1,2,4-triazole-3,5-diamine], the half-maximal inhibitory concentration (IC50) at CDK1:Cyclin-B (setting [5]) was determined as 89 nM; on CDK1:Cyclin-B (Table 1), 88.9 nM; in test [1], 10500 nM; in test [2] (setting [6]) it was 16 nM; in test [3], 1620 nM; in test [4] it was 629 nM.

For `Nc1nc(Nc2ccc(S(N)(=O)=O)cc2)nn1C(=O)c1ccsc1` [Cpd 30, 4-[[5-amino-1-(3-thienylcarbonyl)-1H-1,2,4-triazol-3-yl]amino]-benzenesulfonamide], the IC50 was found to be 17 nM at CDK1:Cyclin-B (setting [5]); 17 nM at CDK1:Cyclin-B (Table 1); 88300 nM in test [1]; 14 nM in test [2] (setting [6]); 5930 nM in test [3]; 392 nM in test [4].

In the case of `CCc1ccc(C(=O)n2nc(Nc3ccc(S(N)(=O)=O)cc3)nc2N)s1` [Cpd 32, 4-[[5-amino-1-[(5-ethyl-2-thienyl)carbonyl]-1H-1,2,4-triazol-3-yl]amino]-benzenesulfonamide], the IC50 is 3 nM at CDK1:Cyclin-B (setting [5]); 3.1 nM at CDK1:Cyclin-B (Table 1); over 100000 nM in test [1]; 3 nM in test [2] (setting [6]); 563 nM in test [3]; 74 nM in test [4].

For `Cc1nc(C)c(C(=O)n2nc(Nc3ccc(S(N)(=O)=O)cc3)nc2N)s1` [Cpd 34, 4-[[5-amino-1-[(2,4-dimethyl-5-thiazolyl)carbonyl]-1H-1,2,4-triazol-3-yl]amino]-benzenesulfonamide], the IC50 on CDK1:Cyclin-B (setting [5]) was 2 nM; on CDK1:Cyclin-B (Table 1), 1.6 nM; in test [1], over 100000 nM; in test [2] (setting [6]), 15 nM; in test [3], over 10000 nM; in test [4], 292 nM.

With `Nc1nc(Nc2ccc(S(N)(=O)=O)cc2)nn1C(=O)c1sccc1Br` [Cpd 35, 4-[[5-amino-1-[(3-bromo-2-thienyl)carbonyl]-1H-1,2,4-triazol-3-yl]amino]-benzenesulfonamide], the IC50 at CDK1:Cyclin-B (Table 1) worked out at 1.1 nM.

As to `Nc1nc(Nc2ccc(S(N)(=O)=O)cc2)nn1C(=O)C1CCCC1` [Cpd 38, 4-[[5-amino-1-(cyclopentylcarbonyl)-1H-1,2,4-triazol-3-yl]amino]-benzenesulfonamide], the IC50 in test [1] was over 100000 nM; in test [2] (setting [6]), 122 nM; in test [3], 24200 nM; in test [4] it was 6370 nM.

In the case of `Nc1nc(Nc2ccc(S(N)(=O)=O)cc2)nn1C(=O)C1CCCCC1` [Cpd 39, 4-[[5-amino-1-(cyclohexylcarbonyl)-1H-1,2,4-triazol-3-yl]amino]-benzenesulfonamide], the IC50 in test [1] was over 100000 nM; in test [2] (setting [6]) it was 127 nM; in test [3], 13200 nM; in test [4], 3980 nM.

Take `CC(C)(C)c1ccc(C(=O)n2nc(Nc3ccc(S(N)(=O)=O)cc3)nc2N)s1` [Cpd 51, 4-[[5-amino-1-[[5-(1,1-dimethylethyl)-2-thienyl]carbonyl]-1H-1,2,4-triazol-3-yl]amino]-benzenesulfonamide]: the IC50 on CDK1:Cyclin-B (setting [5]) came out at 7 nM; at CDK1:Cyclin-B (Table 1), 7 nM; in test [1], 813 nM; in test [2] (setting [6]) it was 20 nM; in test [3], 928 nM; in test [4], 199 nM.

As for `Cc1ccccc1C(=O)n1nc(Nc2ccc(S(N)(=O)=O)cc2)nc1N` [Cpd 57, 4-[[5-amino-1-(2-methylbenzoyl)-1H-1,2,4-triazol-3-yl]amino]-benzenesulfonamide], the IC50 on CDK1:Cyclin-B (setting [5]) is 67 nM; on CDK1:Cyclin-B (Table 1), 67 nM; in test [1], over 100000 nM; in test [2] (setting [6]), 98 nM; in test [3], over 100000 nM; in test [4], 4190 nM.

Consider `CC(O)c1ccc(F)c(C(=O)n2nc(Nc3ccc(S(N)(=O)=O)cc3)nc2N)c1F` (stereo not shown) [Cpd 58, 4-[[5-amino-1-[2,6-difluoro-3-(1-hydroxyethyl)benzoyl]-1H-1,2,4-triazol-3-yl]amino]-benzenesulfonamide], for which the IC50 at CDK1:Cyclin-B (setting [5]) is 14 nM; on CDK1:Cyclin-B (Table 1), 14 nM; in test [1] it was over 100000 nM; in test [2] (setting [6]) it was 15 nM; in test [3], 10700 nM; in test [4], 8530 nM.

For the compound `Cc1ccc(F)c(C(=O)n2nc(Nc3ccc(S(N)(=O)=O)cc3)nc2N)c1Cl` [Cpd 69, 4-[[5-amino-1-(2-chloro-6-fluoro-3-methylbenzoyl)-1H-1,2,4-triazol-3-yl]amino]-benzenesulfonamide], the IC50 on CDK1:Cyclin-B (setting [5]) was 23 nM; on CDK1:Cyclin-B (Table 1), 23 nM; in test [1], over 100000 nM; in test [2] (setting [6]), 147 nM; in test [3], 12500 nM; in test [4], 100 nM.

As to `Nc1nc(Nc2ccc(S(N)(=O)=O)cc2)nn1C(=O)c1c(F)cccc1Cl` [Cpd 70, 4-[[5-amino-1-(2-chloro-6-fluorobenzoyl)-1H-1,2,4-triazol-3-yl]amino]-benzenesulfonamide], the IC50 at CDK1:Cyclin-B (setting [5]) is 35 nM; on CDK1:Cyclin-B (Table 1), 35 nM; in test [1], over 100000 nM; in test [2] (setting [6]) it was 220 nM; in test [3], 19400 nM; in test [4] it was 16200 nM.

Consider `CN1CCN(c2ccc(Nc3nc(N)n(C(=O)c4c(F)cccc4F)n3)cc2)CC1` [Cpd 71, 1-(2,6-difluorobenzoyl)-N^3-[4-(4-methyl-1-piperazinyl)phenyl]-1H-1,2,4-triazole-3,5-diamine], for which the half-maximal inhibitory concentration (IC50) was 3710 nM on CDK1:Cyclin-B (setting [5]); 3710 nM at CDK1:Cyclin-B (Table 1); 60900 nM in test [1]; 1720 nM in test [2] (setting [6]); over 100000 nM in test [3]; 27000 nM in test [4].

On to `CNS(=O)(=O)c1ccc(Nc2nc(N)n(C(=O)c3c(F)cccc3F)n2)cc1` [Cpd 80, 4-[[5-amino-1-(2,6-difluorobenzoyl)-1H-1,2,4-triazol-3-yl]amino]-N-methyl-benzenesulfonamide], for which the IC50 at CDK1:Cyclin-B (Table 1) came out at 45.2 nM.

Regarding `CNS(=O)(=O)c1ccc(Nc2nc(N)n(C(=O)c3c(F)ccc(C)c3F)n2)cc1` [Cpd 81, 4-[[5-amino-1-(2,6-difluoro-3-methylbenzoyl)-1H-1,2,4-triazol-3-yl]amino]-N-methyl-benzenesulfonamide], the concentration for half-maximal inhibition (IC50) in test [1] was over 100000 nM; in test [2] (setting [6]), 49 nM; in test [3], 11700 nM; in test [4] it was 7760 nM.

As to `CNS(=O)(=O)c1ccc(Nc2nc(N)n(C(=O)c3sccc3C)n2)cc1` [Cpd 82, 4-[[5-amino-1-[(3-methyl-2-thienyl)carbonyl]-1H-1,2,4-triazol-3-yl]amino]-N-methyl-benzenesulfonamide], the IC50 is 9 nM on CDK1:Cyclin-B (setting [5]); 9 nM at CDK1:Cyclin-B (Table 1); over 100000 nM in test [1]; 25 nM in test [2] (setting [6]); 1950 nM in test [3]; 42 nM in test [4].

On to `Nc1nc(Nc2ccc(N3CCCS3(=O)=O)cc2)nn1C(=O)c1c(F)cccc1F` [Cpd 117], for which the IC50 in test [1] was over 100000 nM; in test [2] (setting [6]) it was 1040 nM; in test [3] it was over 100000 nM; in test [4] it was over 100000 nM.

Broadly, the IC50 is the midpoint of a concentration-inhibition curve.
